From patent US20210379210A1, “RADIOLIGANDS FOR IMAGING THE LPA1 RECEPTOR” (BRISTOL-MYERS SQUIBB COMPANY, priority 2018, published 2021)

Target: human LPA1 (Homo sapiens, UniProt Q92633)
Assay: In-vitro whole cell binding: competition with the ^18F tracer
Conditions: CHO cells overexpressing human LPA1; ^18F tracer 3.8 nM; room temperature 1 hr; read-out: IC50, inhibition of binding of the ^18F tracer
Method: The effectiveness of compounds of the present invention as LPA1 inhibitors can be determined in an LPA1 binding assay as follows: Chinese hamster ovary cells overexpressing human LPA1 were maintained in F12 medium (Gibco #11765) supplemented with 10% fetal bovine serum and 1 mg/ml hygromycin (Invitrogen #10687-010). On day of assay, 150 cm^2 flasks of subconfluent cells were harvested with TripLE Express Dissociation reagent (Gibco #12605-010), counted, centrifuged, and resuspended in ice-cold Binding Assay Buffer (BAB: 50 mM HEPES pH 7.2, 100 mM NaCl, 2 mM EDTA) at 2×10^6 cells per ml. Cells were kept on ice until use. Test compound dilution plates were prepared by serially diluting test compounds (2 mM stock in 100% DMSO, […] dilutions) in DMSO, then diluting 1:50 in BAB to generate twelve half-log test concentrations at 4× final concentration. Binding assay were carried out in non-binding surface 96-well plates (Corning #3605) at room temperature for 1 hour. […] Individual filter discs were cut out of the filter plate and counted in a gamma counter. IC50 values were determined by fitting the data to a 4-parameter logistic equation (GraphPad Prism, San Diego Calif.).

Sequence of human LPA1 (Q92633 whole entry): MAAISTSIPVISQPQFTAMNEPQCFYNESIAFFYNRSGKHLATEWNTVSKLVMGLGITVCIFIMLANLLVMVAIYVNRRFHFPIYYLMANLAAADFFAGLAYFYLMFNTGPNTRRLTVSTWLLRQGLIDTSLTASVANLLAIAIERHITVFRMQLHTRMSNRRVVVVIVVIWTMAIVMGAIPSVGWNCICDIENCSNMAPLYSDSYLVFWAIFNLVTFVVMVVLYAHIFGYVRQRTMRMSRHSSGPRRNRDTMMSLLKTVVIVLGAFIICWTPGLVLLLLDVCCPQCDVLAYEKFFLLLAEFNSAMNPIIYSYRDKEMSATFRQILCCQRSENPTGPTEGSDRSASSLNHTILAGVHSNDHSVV

Cc1nc(-c2nnn(C)c2COC(=O)N(C)CCCCF)ccc1O[C@H]1CCC[C@H](C(=O)O)C1 [Example 14]
IC50: 24.5 nM
